The results in this text go back to US20230099441A1, “HETEROCYCLIC COMPOUND, APPLICATION THEREOF, AND COMPOSITION CONTAINING SAME” (GenEros Biopharma Ltd., priority 2019, published 2023).

For experiment [1], the system named is STAT5 Y694 phosphorylation. In words: HTRF experiment: STAT5 Y694 phosphorylation in Hela cells stimulated with human interferon beta. To be noted: 2 hours pretreatment, 10 nM human interferon beta 30 minutes. The format is cell-based. How it is done: Example of Effect 3: HTRF Experiment
Human Interferon 3 (IFN-0) (GenScript, Cat #P01574), STAT5 Y694 phosphorylation detection kit (STAT5 phospho-Y694 kit) (Cisbio; Cat #64AT5PEG).
Hela cells (ATCC American Standard Culture Center, CCL-2) were cultured in a 96-well plate at a density of 3×10^4 cells/well with DMEM medium containing 5% fetal bovine serum and maintained at 37° C. in a humidified incubator with 5% carbon dioxide overnight. On the second day, the original DMEM medium in the 96-well plate was sucked dry, and an equal volume of medium containing different concentrations of compounds (the mother liquor of the compound prepared by dimethyl sulfoxide was diluted in the medium at the required concentration) was added for pretreatment for 2 hours, and then it was placed in an incubator at 37° C. Then human interferon beta with a final concentration of 10 nM was added to stimulate, and it was gently shaken to mix well and then placed in an incubator at 37° C. for 30 minutes.
The medium was removed, an appropriate volume of PBS was added to wash, and then it was sucked dry. Then 40 microliters of 1× Lysis Buffer was added to each well and it was stood for 30 minutes at room temperature (1 ml 1× lysate preparation: 740 μl ddH2O was added to 250 μl 4× lysate and 10 μl Blocking reagent and it was mixed thoroughly). After 30 minutes, the cells were repeatedly blown until the lysis solution was not viscous (avoiding blowing out bubbles) to achieve sufficient lysis.
After overnight incubation, the signals of 665 nm and 620 nm were detected in a multifunctional microplate reader. The calculation formula for the detection of STAT5 Y694 phosphorylation is: Ratio=[(signal 665 nm)/(signal 620 nm)]×10^4. Treatment with dimethyl sulfoxide alone was the baseline control (Ratiobase), and the human interferon β stimulation without addition of the compound was the STAT5 Y694 full phosphorylation activation control (Ratiostimulation), the inhibition rate of STAT5 Y694 phosphorylation of different samples was normalized: Inhibition rate=[1−(RatioExperiment−Ratiobase)/(Ratiostimulation−Ratiobase)]*100.

The subject of experiment [2] is STAT5 Y694 phosphorylation. The experiment is described as follows: Protein electrophoresis and blotting of STAT5 Y694 phosphorylation in Jurkat cells stimulated with human interferon beta. The format is cell-based. Conditions: for Example of Effect 1: Inhibiting Ability (Protein Electrophoresis and Blotting): observed pSTAT5 bands at 10 μM and 100 μM; for Inhibiting Ratio (0% for vehicle control): 1 hour pretreatment, 20 ng/ml human interferon beta 30 minutes, pSTAT5/GAPDH. In outline:
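Serum-free Jurkat cells pretreated with compound 1 h, then stimulated with 20 ng/ml human interferon beta for 30 min at 37° C. pSTAT5 measured by western blot with chemiluminescence, normalized to GAPDH and expressed as percent of DMSO control.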

For `O=C(Cc1ccc2ncccc2c1)N1CCCC(n2c(=O)[nH]c3cccc(C(F)(F)F)c32)CC1` (centres unmarked) [GEN1-173, 1-(1-(2-(quinolin-6-yl)acetyl)azacycloheptane-4-yl)-7-(trifluoromethyl)-1,3-dihydro-2H-benzo[d]imidazol-2-one], the “Example of Effect 3: Inhibiting Ratio@10 μM (HTRF Experiment)” value in experiment [1] is 50.75%. The “Example of Effect 1: Inhibiting Ability (Protein Electrophoresis and Blotting)” value (from here on “Example of Effect 1: Inhibiting Ability”) in experiment [2] was “+”.
In the case of `CC(C)(C(=O)N1CCC(n2c(=O)[nH]c3cccc(C(F)(F)F)c32)CC1)c1ccc(C(F)(F)F)cc1` [GEN1-158, 1-(1-(2-methyl-2-(4-(trifluoromethyl)phenyl)propionyl)piperidin-4-yl)-7-(trifluoromethyl)-1H-benzo[d]imidazol-2(3H)-one], the “Example of Effect 3: Inhibiting Ratio@10 μM (HTRF Experiment)” value in experiment [1] is 0.16%. Further, the “Example of Effect 1: Inhibiting Ability” value in experiment [2] was “−”.
For the compound `COc1ccc(CC(=O)N2CCC(n3c(=O)[nH]c4cccc(C(F)(F)F)c43)CC2)cc1OC` [GEN1-168, 1-(1-(2-(3,4-dimethoxyphenyl)acetyl)piperidin-4-yl)-7-(trifluoromethyl)-1,3-dihydro-2H-benzo[d]imidazol-2-one], the “Example of Effect 3: Inhibiting Ratio@10 μM (HTRF Experiment)” value in experiment [1] came to 47.57%. Moreover, the “Example of Effect 1: Inhibiting Ability” value in experiment [2] is on record as “+”.
Turning to `CC(C)(C)c1ccc(CC(=O)N2CCC(n3c(=O)[nH]c4ccccc43)CC2)cc1` [GEN1-031, 1-(1-(2-(4-(tert-butyl)phenyl)acetyl)piperidin-4-yl)-1H-benzo[d]imidazole-2(3H)-one], the “Example of Effect 3: Inhibiting Ratio@10 μM (HTRF Experiment)” value in experiment [1] was 0.13%. For the same compound, the “Inhibiting Ratio (0% for vehicle control)” value in experiment [2] (1 μM) is 19.7%; in experiment [2] (10 μM) it was 38.1%; in experiment [2] (100 μM) it was 98.7%. In addition, in experiment [2], the “Example of Effect 1: Inhibiting Ability” value is reported as “+”.
For `O=C(Cc1ccc(C(F)(F)F)cc1)N1CCC(N2Cc3ccccc3NC2=O)CC1` [GEN1-161, 3-(1-(2-(4-(trifluoromethyl)phenyl)acetyl)piperidin-4-yl)-3,4-dihydroquinazolin-2(1H)-one], the “Example of Effect 3: Inhibiting Ratio@10 μM (HTRF Experiment)” value in experiment [1] is listed as 1.38%. Also, the “Example of Effect 1: Inhibiting Ability” value in experiment [2] is given as “+”.
As for `O=C(C[C@H]1CC[C@@H](C(F)(F)F)CC1)N1CCC(n2c(=O)[nH]c3ccccc32)CC1` [GEN1-107, (Cis)-1-(1-(2-(4-(trifluoromethyl)cyclohexyl)acetyl)piperidin-4-yl)-1H-benzo[d]imidazol-2(3H)-one], the “Example of Effect 3: Inhibiting Ratio@10 μM (HTRF Experiment)” value in experiment [1] was determined as 37.09%. Also, in experiment [2], the “Example of Effect 1: Inhibiting Ability” value is recorded as “+”.
With `O=c1[nH]c2ccccc2n1C1CCN(C(=S)Cc2ccc(C(F)(F)F)cc2)CC1` [GEN1-128], the “Example of Effect 3: Inhibiting Ratio@10 μM (HTRF Experiment)” value in experiment [1] was found to be 13.88%. Further, the “Example of Effect 1: Inhibiting Ability” value in experiment [2] was “+”.
Consider `O=C(Cc1ccc2nccnc2c1)N1CCC(n2c(=O)[nH]c3cccc(C(F)(F)F)c32)CC1` [GEN1-140, 1-(1-(2-(quinoxalin-6-yl)acetyl)piperidin-4-yl)-7-(trifluoromethyl)-1,3-dihydro-2H-benzo[d]imidazol-2-one], for which the “Example of Effect 3: Inhibiting Ratio@10 μM (HTRF Experiment)” value in experiment [1] amounted to 53.79%. In addition, the “Example of Effect 1: Inhibiting Ability” value in experiment [2] is on record as “+”.
On to `O=C(C(=O)N1CCC(n2c(=O)[nH]c3cccc(C(F)(F)F)c32)CC1)c1ccc(C(F)(F)F)cc1` [GEN1-160, 1-(4-(2-oxo-7-(trifluoromethyl)-2,3-dihydro-1H-benzo[d]imidazol-1-yl)piperidin-1-yl)-2-(4-(trifluoromethyl)phenyl)1,2-dione], for which the “Example of Effect 3: Inhibiting Ratio@10 μM (HTRF Experiment)” value in experiment [1] is reported as 10.27%. The “Example of Effect 1: Inhibiting Ability” value in experiment [2] is “+”.
In the case of `CN(C)c1ccc(CC(=O)N2CCC(n3c(=O)[nH]c4cccc(C(F)(F)F)c43)CC2)cc1` [GEN1-118, 1-(1-(2-(4-(dimethylamino)phenyl)acetyl)piperidin-4-yl)-7-(trifluoromethyl)-1,3-dihydro-2H-benzo[d]imidazol-2-one], the “Example of Effect 3: Inhibiting Ratio@10 μM (HTRF Experiment)” value in experiment [1] stood at 27.57%. The “Example of Effect 1: Inhibiting Ability” value in experiment [2] is “+”.
Turning to `O=C(Cc1c[nH]c2ccccc12)N1CCC(n2c(=O)[nH]c3cccc(C(F)(F)F)c32)CC1` [GEN1-169], the “Example of Effect 3: Inhibiting Ratio@10 μM (HTRF Experiment)” value in experiment [1] is recorded as 13.47%. The “Example of Effect 1: Inhibiting Ability” value in experiment [2] is given as “+”.
For `COc1ccc2[nH]c(=O)n(C3CCN(C(=O)Cc4ccc(C(F)(F)F)cc4)CC3)c2c1` [GEN1-011, 6-methoxy-1-(1-(2-(4-(trifluoromethyl)phenyl)acetyl)piperidin-4-yl)-1H-benzo[d]imidazole-2 (3H)-one] the same measures were 20.49% and “+”.
`CC(=O)/N=c1\[nH]c2cccc(C(F)(F)F)c2n1C1CCN(C(=O)Cc2ccc3ncccc3c2)CC1` [GEN1-171]: in experiment [1], the “Example of Effect 3: Inhibiting Ratio@10 μM (HTRF Experiment)” value is reported as 9.85%. For the same compound, in experiment [2], the “Example of Effect 1: Inhibiting Ability” value is “−”.
As to `O=C1CN(C2CCN(C(=O)Cc3ccc(C(F)(F)F)cc3)CC2)c2cccc(C(F)(F)F)c2N1` [GEN1-134, 8-(trifluoromethyl)-4-(1-(2-(4-(trifluoromethyl)phenyl)acetyl)piperidin-4-yl)-3,4-dihydroquinoxaline-2(1H)-one], in experiment [1], the “Example of Effect 3: Inhibiting Ratio@10 μM (HTRF Experiment)” value was 3.06%. The “Example of Effect 1: Inhibiting Ability” value in experiment [2] is recorded as “−”.
On to `O=C(Cc1ccc(Cl)cc1)N1CCC(n2c(=O)[nH]c3cccc(C(F)(F)F)c32)CC1` [GEN1-156, 1-(1-(2-(4-chlorophenyl)acetyl)piperidin-4-yl)-7-(trifluoromethyl)-1H-benzo[d]imidazol-2(3H)-one], for which the “Example of Effect 3: Inhibiting Ratio@10 μM (HTRF Experiment)” value in experiment [1] was 47.04%. In addition, the “Example of Effect 1: Inhibiting Ability” value in experiment [2] was “+”.
For `O=C(Cc1ccc2c(c1)OCCO2)N1CCC(n2c(=O)[nH]c3cccc(C(F)(F)F)c32)CC1` [GEN1-159, 1-(1-(2-(2,3-dihydrobenzo[b][1,4]dioxin-6-yl)acetyl)piperidin-4-yl)-7-(trifluoromethyl)-1,3-dihydro-2H-benzo[d]imidazol-2-one] the same measures were 22.99% and “+”.
For `O=C(Cc1ccc(C(F)(F)F)cc1)N1CCC(N2C(=O)NCc3ccccc32)CC1` [GEN1-162, 1-(1-(2-(4-(trifluoromethyl)phenyl)acetyl)piperidin-4-yl)-3,4-dihydroquinazolin-2(1H)-one], the “Example of Effect 3: Inhibiting Ratio@10 μM (HTRF Experiment)” value in experiment [1] is 22.04%. For the same compound, the “Example of Effect 1: Inhibiting Ability” value in experiment [2] was “+”.
The matching figures for `O=C(/N=c1\[nH]c2cccc(C(F)(F)F)c2n1C1CCN(C(=O)Cc2ccc3ncccc3c2)CC1)c1ccccc1` [GEN1-172]: 13.83% and “−”.
Consider `O=C(Nc1ccc(C(F)(F)F)cc1)N1CCC(n2c(=O)[nH]c3cccc(C(F)(F)F)c32)CC1` [GEN1-149, 4-(2-oxo-7-(trifluoromethyl)-2,3-dihydro-1H-benzo[d]imidazol-1-yl)-N-(4-(trifluoromethyl)phenyl)piperidin-1-carboxamide], for which the “Example of Effect 3: Inhibiting Ratio@10 μM (HTRF Experiment)” value in experiment [1] is given as 0.49%. The “Example of Effect 1: Inhibiting Ability” value in experiment [2] is listed as “+”.
As to `O=C(C[C@H]1CC[C@H](C(F)(F)F)CC1)N1CCC(n2c(=O)[nH]c3ccccc32)CC1` [GEN1-108, (trans)-1-(1-(2-(4-(trifluoromethyl)cyclohexyl)acetyl)piperidin-4-yl)-1H-benzo[d]imidazol-2(3H)-one], in experiment [1], the “Example of Effect 3: Inhibiting Ratio@10 μM (HTRF Experiment)” value was determined as 38.81%. Moreover, in experiment [2], the “Example of Effect 1: Inhibiting Ability” value is recorded as “+”.
Consider `O=C(Cc1ccc(C(F)(F)F)cc1)N1CCC(n2c(=O)[nH]c3c(N4CCOCC4)cccc32)CC1` [GEN1-154, 4-morpholino-1-(1-(2-(4-(trifluoromethyl)phenyl)acetyl)piperidin-4-yl)-1H-benzo[d]imidazol-2(3H)-one], for which the “Example of Effect 3: Inhibiting Ratio@10 μM (HTRF Experiment)” value in experiment [1] is 6.10%. The “Example of Effect 1: Inhibiting Ability” value in experiment [2] is listed as “−”.
With `O=C1CN(C2CCN(C(=O)Cc3ccc(C(F)(F)F)cc3)CC2)c2ccccc2N1` [GEN1-052, 4-(1-(2-(4-(trifluoromethyl)phenyl)acetyl)piperidin-4-yl)-3,4-dihydroquinoxaline-2(1H)-one], the “Example of Effect 3: Inhibiting Ratio@10 μM (HTRF Experiment)” value in experiment [1] was determined as 8.83%. For the same compound, the “Example of Effect 1: Inhibiting Ability” value in experiment [2] is “+”.
